Read-outs that look alike come from different tables or passages of the source. One block for each compound: values may come before it.
How the values were obtained:
OX1 = target: T1, OX1 (Homo sapiens, UniProt O43613); assay: Orexin receptor cell-based functional assay, [Ca2+]i by FLIPR, CHO-OX1 cells
T1 construct: expressed in transfected cells; host or cells: CHO (CHO-OX1, kept under selection antibiotic)
T1 sequence (O43613 1-425): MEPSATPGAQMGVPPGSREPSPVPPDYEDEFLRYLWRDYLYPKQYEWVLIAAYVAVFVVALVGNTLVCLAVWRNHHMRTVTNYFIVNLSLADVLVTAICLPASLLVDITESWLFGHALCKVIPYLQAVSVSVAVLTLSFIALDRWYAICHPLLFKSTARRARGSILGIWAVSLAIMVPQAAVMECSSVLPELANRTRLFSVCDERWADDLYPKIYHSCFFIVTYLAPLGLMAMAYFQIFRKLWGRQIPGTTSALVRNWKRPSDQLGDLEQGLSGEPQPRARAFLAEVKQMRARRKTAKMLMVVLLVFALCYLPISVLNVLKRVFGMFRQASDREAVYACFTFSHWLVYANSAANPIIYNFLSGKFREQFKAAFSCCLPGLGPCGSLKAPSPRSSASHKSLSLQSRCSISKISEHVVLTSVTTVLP
Summary of the method: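 Antagonist mode FLIPR calcium read in CHO-OX1 and CHO-OX2 lines. Test compounds, dosed 0.1 nM-10 μM, preincubated 30 min after 37° C dye loading with 2.5 mM probenecid (calcium4 for 30 min or calcium6 for 2 h).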

Hcrt-R1 WT and KO mice = assay: Nicotine self-administration assay (mice), with food self-administration; type: in vivo; settings: for food self-administration (SA): KO and WT mice, systemic administration 30 min prior to the SA session; for nicotine SA: doses 0, 5 and 10 mg/kg
From the text: To generate Hcrt-R1^+/+ and […] mice, breeding pairs of male and female Hcrt-R1^+/− mice that were backcrossed >10 generations on a C57BL/6 background were obtained from Jackson Laboratory (Bar Harbor, Me.). For all experiments, mice weighing 25-35 g were housed in groups of 2-3 per cage, in a temperature-controlled vivarium under a reversed 12-h light/dark cycle (lights off at 8 am). Food and water were provided ad libitum until behavioral training commenced. During training, mice were food-restricted to maintain ˜85-90% of their free-feeding body weight. Behavioral testing occurred during the dark portion of the light/dark cycle between the hours of 9 am-1 pm, during the early portion of the dark phase of the cycle. All procedures were conducted in strict adherence with the National Institutes of Health Guide for the Care and Use of Laboratory Animals and were approved by the Institutional Animal Care and Use Committee of The Scripps Research Institute.
Mice were anesthetized by inhalation of 1-3% isoflurane in oxygen and silastic catheters were inserted into the jugular veins. Briefly, the catheters consisted of a 6 cm length of silastic tubing fitted to a guide cannula (Plastics One, Wallingford, Conn.), bent at a curved right angle and encased in dental acrylic. The catheter tubing was passed subcutaneously from each animal's back to the right jugular vein, and 1 cm length of the catheter tip was inserted into the vein. After surgery, catheters were flushed daily with 0.1 ml of a heparinized (30 USP units/ml) sterile saline solution. Following 7 d of surgical recovery, mice were mildly food restricted to 85-90% of their free-feeding body weight and trained to press a lever in an operant chamber (Med Associates, St. Albans, Vt.) for food pellets (20 mg; TestDiet, Richmond, Ind.) under a fixed-ratio 5, time out 20-s (FR5TO20 s) schedule of reinforcement […]. Once stable responding was achieved (>25 pellets per session), mice were permitted to acquire IV nicotine self-administration by autoshaping during 1-h daily sessions, 7 days per week. Nicotine was delivered through the tubing into the IV catheter by a Razel syringe pump (Med Associates). […] After 1 week, the nicotine dose was increased to 0.1 mg/kg/inf for the remainder of the experiment, including subsequent training and test sessions. […] During the TO period, responding on the lever was recorded but without scheduled consequence. […]
For Hcrt-R1 re-expression studies, the human Hcrt-R1 gene was cloned into the pCDF1 lentivirus expression vector containing copGFP (GFP cloned from copepod Pontellina plumata) from Systems Biosciences. […] Viral supernatant titres were determined using the Lentivector Rapid Titer Kit from System Biosciences, according to the manufacturer's instructions. […]

CYP3A4 = target: T2, CYP3A4 (Homo sapiens, UniProt P08684); assay: Cytochrome P450 inhibition assay (midazolam hydroxylation); type: in vitro ADME; settings: human, human liver microsomes, probe midazolam (hydroxylation to 1′-hydroxymidazolam), 10 μM test compound, midazolam at approximately its Km
T2 construct: pre-incubated with human liver microsomes and NADPH; from tissue; host or cells: human liver microsomes
Summary of the method: (§1)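 Percent inhibition of midazolam 1′-hydroxylation by 10 μM compound was measured, midazolam dosed at about Km. Time-dependent inhibition was probed by a 30 min preincubation of compound with human liver microsomes and NADPH ahead of substrate, compared against samples without preincubation.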

rats = assay: Nicotine self-administration assay (rats), with food responding; type: in vivo; settings: several doses
From the text: For all experiments, rats weighing 250-300 g were housed in groups of […] per cage, in a temperature-controlled vivarium under a reversed 12-h light/dark cycle (lights off at 8 am). Food and water were provided ad libitum until behavioral training commences. During training, rats were food-restricted to maintain ˜85-90% of their free-feeding body weight. Behavioral testing occurred during the dark portion of the light/dark cycle between the hours of 9 am-1 pm, during the early portion of the dark phase of the cycle. All procedures were conducted in strict adherence with the National Institutes of Health Guide for the Care and Use of Laboratory Animals and are approved by the Institutional Animal Care and Use Committee of The Scripps Research Institute.
Rats were anesthetized by inhalation of 1-3% isoflurane in oxygen and silastic catheters were inserted into the jugular veins. Briefly, the catheters consist of a 14 cm length of silastic tubing fitted to a guide cannula (Plastics One, Wallingford, Conn.), bent at a curved right angle and encased in dental acrylic. The catheter tubing was passed subcutaneously from each animal's back to the right jugular vein, and 1 cm length of the catheter tip was inserted into the vein. […] During the TO period, responding on the lever was recorded but without scheduled consequence. […]

[1] = target: T3, cytochrome P450 3A4 isoform (Homo sapiens, UniProt P08684); assay: Cytochrome P450 inhibition assay (midazolam hydroxylation); type: in vitro ADME; settings: 10 μM test compound, midazolam at approximately its Km, human liver microsomes
T3 construct: pre-incubated with human liver microsomes and NADPH; from tissue; host or cells: human liver microsomes
Summary of the method: as §1

[2] = CHO-OX1 cells, [Ca2+]i by FLIPR, antagonist dose-range 0.1 nM-10 μM, EC90 of OXA, read-out: OX1

T3 sequence (P08684 whole entry, canonical isoform): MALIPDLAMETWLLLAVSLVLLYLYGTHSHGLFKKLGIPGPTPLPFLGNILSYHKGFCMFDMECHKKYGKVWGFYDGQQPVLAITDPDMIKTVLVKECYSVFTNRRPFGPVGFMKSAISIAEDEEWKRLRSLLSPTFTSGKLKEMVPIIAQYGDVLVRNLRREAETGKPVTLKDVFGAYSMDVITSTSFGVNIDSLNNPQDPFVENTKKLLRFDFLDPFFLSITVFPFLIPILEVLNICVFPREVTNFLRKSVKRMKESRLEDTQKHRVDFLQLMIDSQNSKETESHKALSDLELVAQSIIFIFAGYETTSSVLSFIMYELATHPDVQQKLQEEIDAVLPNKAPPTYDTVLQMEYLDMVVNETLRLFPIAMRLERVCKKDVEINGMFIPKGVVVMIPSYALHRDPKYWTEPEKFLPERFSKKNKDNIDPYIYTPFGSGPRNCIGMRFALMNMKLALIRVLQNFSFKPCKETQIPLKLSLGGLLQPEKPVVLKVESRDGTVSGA
T2 sequence (P08684 whole entry): as the sequence (P08684 whole entry, canonical isoform) above

Structure (SMILES): Cc1nc(C(=O)N2CCC[C@@H](C)[C@H]2CNc2ccc(C(F)(F)F)cn2)c(-c2ccc(F)cc2)s1 (racemic) [Example 11, rac-cis-(5-(4-Fluorophenyl)-2-methylthiazol-4-yl)(3-methyl-2-(((5-(trifluoromethyl)pyridin-2-yl)amino)methyl)piperidin-1-yl)methanone]
IC50 (OX1; Table 2, CHO-OX1 cells, EC90 of OXA, read-out: IC50 Bioactivity OX1): 8 nM | IC50 (OX1; Table 6, racemate vs enantiomers, read-out: OX1 IC50): 8 nM | food self-administration (SA) (Hcrt-R1 WT and KO mice): no effect

Structure (SMILES): Cc1ccc(-c2cnn(C)c2)c(C(=O)N2CCC[C@@H](C)[C@H]2CNc2ccc(C(F)(F)F)cn2)c1 [Example A1, ((2S,3R)-3-Methyl-2-(((5-(trifluoromethyl)pyridin-2-yl)amino)methyl)piperidin-1-yl)(5-methyl-2-(1-methyl-1H-pyrazol-4-yl)phenyl)methanone]
inhibition at 10 µM (CYP3A4): 98% | food intake (rats): does not have a significant effect | nicotine self-administration (rats): dose-dependent reduction

Structure (SMILES): Cc1ccc(-c2cnn(C)c2)c(C(=O)N2CCC[C@@H](C)[C@H]2CNc2nc3cc(Cl)ccc3o2)c1 [Example A40, ((2S,3R)-2-(((5-Chlorobenzo[d]oxazol-2-yl)amino)methyl)-3-methylpiperidin-1-yl)(5-methyl-2-(1-methyl-1H-pyrazol-4-yl)phenyl)methanone]
% CYP3A4 Inhibition ([1]; 10 µM): 96% | IC50 (OX1; [2]): 20 nM

Structure (SMILES): CC1(C)OC[C@H](NC(=O)Nc2ccc(Br)cc2Br)[C@H](c2ccccc2)O1 [JNJ10397049]
food self-administration (SA) (Hcrt-R1 WT and KO mice): no effect | nicotine SA (Hcrt-R1 WT and KO mice; KO mice): marginal decrease | nicotine SA (Hcrt-R1 WT and KO mice; WT mice): no effect

Second part, the compound after the results:

% CYP3A4 Inhibition ([1]; 10 µM): 53% | IC50 (OX1; [2]): 5 nM
Structure (SMILES): Cc1ccc(-n2nccn2)c(C(=O)N2CCC[C@@H](C)[C@H]2CNc2ccc(C#N)cn2)c1 [Example A46, 6-((((2S,3R)-3-Methyl-1-(5-methyl-2-(2H-1,2,3-triazol-2-yl)benzoyl)piperidin-2-yl)methyl)amino)nicotinonitrile]

% CYP3A4 Inhibition [1]: 50% | IC50 (OX1; [2]): 5 nM
Structure (SMILES): C[C@@H]1CCCN(C(=O)c2cccc(F)c2-c2ncccn2)[C@@H]1CNc1ncc(C(F)(F)F)cn1 [Example A230, (3-Fluoro-2-(pyrimidin-2-yl)phenyl)((2S,3R)-3-methyl-2-(((5-(trifluoromethyl)pyrimidin-2-yl)amino)methyl)piperidin-1-yl)methanone]

% CYP3A4 Inhibition [1]: 65% | IC50 (OX1; [2]): 8 nM
Structure (SMILES): C[C@@H]1CCCN(C(=O)c2cccc(F)c2-c2ncccn2)[C@@H]1CNc1ccc(Cl)cn1 [Example A232, ((2S,3R)-2-(((5-chloropyridin-2-yl)amino)methyl)-3-methylpiperidin-1-yl)(3-fluoro-2-(pyrimidin-2-yl)phenyl)methanone]

% CYP3A4 Inhibition [1]: 87% | IC50 (OX1; [2]): 24 nM
Structure (SMILES): C[C@@H]1CCCN(C(=O)c2cc(F)c(F)cc2-c2ncccn2)[C@@H]1CNc1ccc(C(F)(F)F)cn1 [Example A242, (4,5-Difluoro-2-(pyrimidin-2-yl)phenyl)((2S,3R)-3-methyl-2-(((5-(trifluoromethyl)pyridin-2-yl)amino)methyl)piperidin-1-yl)methanone]
